# Measurements as given in article PMC9146163, “Novel Au Carbene Complexes as Promising Multi-Target Agents in Breast Cancer Treatment” (Pharmaceuticals, 2022).
# Where two headings read alike, the source gives them in different places.
# Experiments:
# Hek-293 cells [1] = experiment: MTT assay, normal Hek-293; assay type: cell-based, human; details: read-out: IC50 Hek-293
# Experimental: (§1) The five employed cell lines were purchased from American Type Culture Collection (ATCC, Manassas, VA, USA) and maintained as already reported. […] SkBr3 cells were maintained in DMEM high glucose, supplemented with 10% FBS and 100 μg/mL penicillin/streptomycin.
# (§2) MTT assays [Sigma Aldrich (St.Louis, MO, USA)] were used in order to determine the in vitro anticancer activities of all the target compounds, as already reported.The compounds were tested at different concentrations (0.1-1-10-20-40 µM) for 72 h. Results are represented as percent (%) of basal and the IC50 values were calculated using GraphPad Prism 9 (GraphPad Software, La Jolla, CA, USA).
# MCF-10A cells = experiment: MTT assay, normal MCF-10A; assay type: cell-based, human; details: 72 h, read-out: IC50 MCF-10A
# Experimental: as §1
# […] Results are represented as percent (%) of basal and the IC50 values were calculated using GraphPad Prism 9 (GraphPad Software, La Jolla, CA, USA).
# SkBr3 cells = experiment: MTT assay, SkBr3; assay type: cell-based, human; details: read-out: IC50 SkBr3
# Experimental: (§3) The five employed cell lines were purchased from American Type Culture Collection (ATCC, Manassas, VA, USA) and maintained as already reported. MCF-7, MDA-MB-231, MCF-10A and Hek-293 were cultured, as indicated by Iacopetta et al.. SkBr3 cells were maintained in DMEM high glucose, supplemented with 10% FBS and 100 μg/mL penicillin/streptomycin.
# as §2
# MCF-7 cells = experiment: MTT assay, MCF-7; assay type: cell-based, human; details: read-out: IC50 MCF-7
# Experimental: as §3, §2
# MDA-MB-231 cells = experiment: MTT assay, MDA-MB-231; assay type: cell-based, human; details: read-out: IC50 MDA-MB-231
# Experimental: as §3, §2
# vimentin in MCF-7 cells = experiment: Vimentin expression (immunofluorescence), MCF-7; assay type: cell-based, human; details: fluorescence quantification; IC50 value, 24 h
# Experimental: (§4) The MitoTracker Deep Red FM probe (MitoTracker Mitochondrion-Selective Probes, Invitrogen European Headquarters, Paisley, PA4 9RF, UK) was used for mitochondrial staining, as previously described. For immunofluorescence analysis, the cells were seeded and further processed, as reported by Iacopetta et al.. The primary antibodies used were: rabbit anti-β-Actin and vimentin (Santa Cruz Biotechnology, Dallas, TX, USA), mouse anti cytochrome c and NF-κB p65 (Abcam, Cambridge, UK), diluted 1:100 in bovine serum albumin (BSA) 2% overnight at 4 °C. The secondary antibodies were: Alexa Fluor® 488 conjugate goat-anti-rabbit and Alexa Fluor® 568 conjugate goat-anti-mouse (Thermo Fisher Scientific, MA, USA), diluted 1:500 and incubated for 2h at 37 °C. DAPI 0.2 μg/mL (Sigma Aldrich, Milan, Italy) was used for nuclei staining. […] All the images were acquired and processed using the LAS-X software.
# Protein lysates underwent the SDS-PAGE process, as already defined. Then lysates were resolved on a 7.5% SDS polyacrylamide gel, transferred to a nitrocellulose membrane, and probed with antibodies against vimentin and GAPDH (Santa Cruz Biotechnology, Dallas, TX, USA). […] The images are representative of three independent experiments.
# [2] = LogP determination (1-octanol/water, UV/vis); assay type: physicochemical; details: log[complex]oct/[complex]H2O, 55 μM, UV-Vis
# Experimental: The logarithm of the partition coefficient (LogP) was evaluated by making a slight modification to the procedure reported in ref. [79]. Equal volumes of 1-octanol and water (distilled after milli-Q purification) were stirred for 20 h at room temperature. Then, they were separated to give 1-octanol-saturated water and water-saturated 1-octanol. Six (10, 20, 40, 50, 60 and 100 μM) standard concentrations of the compounds were prepared from the water-saturated 1-octanol. Analysis using UV/vis spectroscopy was used to obtain a calibration curve of absorbance vs. concentration. For each complex, a solution was prepared in the water-saturated 1-octanol (55 μM) and an equal volume of 1-octanol-saturated water was added. The solutions (biphasic) were mixed for 15 min and then centrifuged for 1h at 6500 rpm to allow separation.
# Concentration in water-saturated 1-octanol was determined by UV-Vis spectroscopy. Reported LogP is defined as log[complex]oct/[complex]H2O.
# β-actin in MCF-10A cells = experiment: Actin immunofluorescence, MCF-10A; assay type: cell-based, human; details: 24 h; compounds at their IC50 value, LA 0.1 μM
# Experimental: as §4
# E: Figure S1. Actin immunofluorescence studies in MCF-10A cells […]
# Figure S1. Actin immunofluorescence studies. M CF-10A cells were treat ed with compounds 1 and […]
# treatment, the cells were methanol fixed, incubated with primary and secondary antibodies, stained with DAPI and observed and imaged under the inverted fluorescence microscope at 20x […]
# A: nuclear stain with DAPI (λex/λem = 350/460 nm); Panels B: β-actin ([…]); Panels C: show a merge. R epresentative fields are shown.
# [3] = target: T1, Labeled Rabbit Muscle Actin (Oryctolagus cuniculus, UniProt P68135); experiment: In vitro actin polymerization assay; assay type: biochemical; details: 5 µM; for actin polymerization curve, final value: end of 1 h kinetic read, control about 37.000 RFU
# T1 construct: purchased Abcam (Actin Polymerization/Depolymerization Assay Kit)
# Experimental: (§5) The ability of the tested compounds to interfere with the actin polymerization and depolymerization reaction was measured using an Actin Polymerization/Depolymerization Assay Kit purchased from Abcam, following the manufacturer’s instructions. […] For the polymerization assay, reconstituted actin was mixed with supplemented Buffer G and samples in a white 96-well plate and then the polymerization reaction was induced with the addition of the Buffer P supplemented with 10 mM ATP. The solution was mixed and the data acquisition started. For the Actin Depolymerization Assay, supplemented Buffers P and G were mixed and incubated in a white 96-well plate at room temperature for one hour to polymerize the actin, protected from light. Then samples were added and the data acquisition started. Latrunculin A and Cytochalasin B were used as control molecules at a concentration of 5 μM. For both the assays, the assembly of actin filaments was determined by measuring the fluorescence (Ex/Em: 365/410 nm) in kinetic mode for 1 h at room temperature using a microplate reader.
# [4] = test system: β-actin in MDA-MB-231 cells; experiment: Actin immunofluorescence, MDA-MB-231; assay type: cell-based, human; details: 24 h; compound 1 at its IC50 value, LA 0.1 µM
# Experimental: as §4
# Hek-293 cells [5] = experiment: MTT assay, normal Hek-293; assay type: cell-based, human; details: up to the concentration of 200 μM
# [6] = target: T1, Labeled Rabbit Muscle Actin; experiment: In vitro actin depolymerization assay; assay type: biochemical; details: for effect on already polymerized actin (in words): 5 µM
# Experimental: as §5
# β-actin in MCF-7 cells = experiment: Actin immunofluorescence, MCF-7; assay type: cell-based, human; details: 24 h; compound 6 at its IC50 value, LA 0.1 µM
# Experimental: as §4
# [7] = MTT, 72 h, normal cells, mean ± SD
Compound,IC50 (Hek-293 cells [1]; [7]) [µM],"IC50 (MCF-10A cells; MTT, normal cells, mean ± SD) [µM]","IC50 (SkBr3 cells; MTT, 72 h, mean ± SD) [µM]","IC50 (MCF-7 cells; MTT, 72 h, mean ± SD) [µM]","IC50 (MDA-MB-231 cells; MTT, 72 h, mean ± SD) [µM]",LogP [2],also measured
"N.N.[Cl][Pt][Cl] [Cisplatin, reference compound]",16.3 ± 0.9,81.3 ± 0.6,7.4 ± 0.9,35.8 ± 0.7,28.7 ± 0.4,,
CC(=O)[O-].Cn1ccn(CC([O-])c2ccccc2)[c]1=[Au+]=[c]1n(C)ccn1CC([O-])c1ccccc1.[Na+].[Na+] (centres unmarked) [Compound 2],> 200,39.6 ± 0.5,38.4 ± 0.4,30.6 ± 0.7,22.6 ± 1.1,0.047,"reduction of vimentin expression with respect to the control, MCF-7 (vimentin in MCF-7 cells): two times lower"
COC(Cn1ccn(C)[c]1=[Au+]=[c]1n(C)ccn1CC(OC)c1ccccc1)c1ccccc1.[Cl-] (centres unmarked) [Compound 3],39 ± 0.9,13.3 ± 1,10.9 ± 0.7,3.3 ± 1.4,2.2 ± 1.1,0.62,
"CC(=O)[O-].COC(Cn1ccn(C)[c]1=[Au+]=[c]1n(C)ccn1CC(OC)c1ccccc1)c1ccccc1 (centres unmarked) [Compound 4, Bis [(N-methyl, N’(2-methoxy-2-phenyl-ethyl)imidazole-2-ylidine]gold(I)] acetate]",7.6 ± 1,5.2 ± 0.9,2.6 ± 0.7,9.4 ± 0.6,3 ± 0.7,,
CC(=O)[O-].Cn1ccn(CC(O)c2ccccc2)[c]1=[Au+]=[c]1n(C)ccn1CC(O)c1ccccc1 (centres unmarked) [Compound 5],> 200,27.8 ± 0.7,58.9 ± 1.2,21.9 ± 0.5,58.5 ± 1.2,0.12,
"C/C1=C/C(=O)O[C@@H]2C[C@@H](CC[C@H](C)/C=C\C=C\CC1)O[C@@](O)([C@@H]1CSC(=O)N1)C2 [Latrunculin A, reference compound]",,,,,,,"IC50 (Hek-293 cells [1]; Homo sapiens, HEK293, 72 h): 0.093 µM; IC50 (MCF-10A cells; Homo sapiens, MCF-10A): 0.045 µM; IC50 (SkBr3 cells; Homo sapiens, SK-BR-3, 72 h): 0.7 ± 1.2 µM; IC50 (MCF-7 cells; Homo sapiens, MCF7, 72 h): 0.14 µM; actin organization in MCF-10A cells (β-actin in MCF-10A cells): aberrant actin arrangement; actin polymerization curve, value 14 min after the reaction started [3]: about 12.000 RFU; effect on actin polymerization (in words) [3]: impeded the actin polymerization; actin polymerization curve, final value [3]: about 10.000 RFU; actin organization in MDA-MB-231 cells [4]: complete disorganization of the actin system; IC50 (MDA-MB-231 cells; Homo sapiens, MDA-MB-231, 72 h): 0.024 µM; cytotoxicity against the normal Hek-293 cells (in words) (Hek-293 cells [5]): drastically reduced; effect on already polymerized actin (in words) [6]: triggered the actin depolymerization; actin depolymerization curve, end value ([6]; 5 µM added to actin polymerized for one hour, followed for another hour): 14.000 RFU; actin depolymerization curve, value after the net decrease at about seven minutes ([6]; 5 µM added to actin polymerized for one hour, initial value around 28.000 RFU): about 16.800 RFU; actin organization in MCF-7 cells (β-actin in MCF-7 cells): complete disorganization of the actin system"
C=C1[C@@H](C)[C@H]2[C@H](Cc3ccccc3)NC(=O)[C@]23OC(=O)/C=C/[C@H](O)CCC[C@@H](C)C/C=C/[C@H]3[C@@H]1O [cytochalasin B],,,,,,,"effect on actin polymerization (in words) [3]: impeded the actin polymerization; actin polymerization curve, final value [3]: ended almost at the same RFU value of the beginning; effect on already polymerized actin (in words) [6]: did not produce a significant decrease"
